Entries after “also recorded” stand apart in the source; their conditions may differ. Where no end group is shown, it is not given here.
Experiments:
B′γ1 = molecular target: T1, B′γ1 (Homo sapiens, UniProt Q13362); test: Isothermal titration calorimetry of synthetic peptides; format: binding; conditions: for interaction with B′γ1 by ITC (in words): phospho-peptides with pS/pT at position 6 and negatively charged residues at positions 2, 7 and 8; for Kd: ITC, 1 mM peptide titrated to 20–50 μM B′γ1, 20 mM HEPES pH 7.5, 200 mM NaCl
T1 construct: Expression and purification of full-length PP2A Aα, Cα, B′γ1 and PR70 (B″ family); made in house
T1 sequence (Q13362 whole entry, looked up): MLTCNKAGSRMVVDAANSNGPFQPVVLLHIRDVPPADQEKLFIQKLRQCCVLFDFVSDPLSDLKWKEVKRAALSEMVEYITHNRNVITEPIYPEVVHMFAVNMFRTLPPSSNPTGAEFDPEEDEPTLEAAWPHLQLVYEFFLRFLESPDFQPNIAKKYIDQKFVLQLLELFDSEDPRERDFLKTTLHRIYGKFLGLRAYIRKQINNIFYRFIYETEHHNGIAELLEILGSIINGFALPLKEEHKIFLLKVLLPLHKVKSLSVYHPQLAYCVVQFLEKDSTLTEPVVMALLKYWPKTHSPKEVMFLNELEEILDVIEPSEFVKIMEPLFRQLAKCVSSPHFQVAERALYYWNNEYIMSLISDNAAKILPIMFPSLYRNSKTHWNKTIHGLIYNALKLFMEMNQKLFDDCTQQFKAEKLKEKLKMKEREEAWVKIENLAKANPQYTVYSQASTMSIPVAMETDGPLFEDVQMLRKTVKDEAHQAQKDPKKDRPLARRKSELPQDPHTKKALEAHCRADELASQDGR
Experimental: The binding affinities between B′γ1 and synthetic CIP2A and Cyk4 peptides (GenScript, Piscataway, NJ, USA) were determined by titrating 1 mM of peptides to 20–50 μM B′γ1 in 20 mM HEPES (pH 7.5), 200 mM NaCl using VP-ITC microcalorimeter (MicroCal, Malvern Instrument, Malvern, UK). The data were fitted with Origin 7.0 (MicroCal, Malvern Instrument, Malvern, UK) to calculate the equilibrium association constant.

[1] = tested on: PP2Ac–Cyk4 interaction in HeLa cells; test: Co-immunoprecipitation of FLAG-Cyk4 with PP2Ac in synchronized cells; format: cell-based; conditions: 200 nM for 30 min; HeLa cells with FLAG-Cyk4 and V5-CIP2A, synchronized with monastrol, 0–90 min after its removal
Experimental: Thirty-six hours after HeLa cells were transfected with FLAG-Cyk4 and V5-CIP2A expression vectors, the transfected cells were arrested at […] with 100 μM monastrol for 14 h, followed by incubation with 200 nM BI-2536 or solvent control for 30 min. Cells were collected at the indicated time points after removal of monastrol to allow cell cycle progression. The interaction between FLAG-Cyk4 and PP2Ac were determined by co-immunoprecipitation using antibody that specifically recognizes FLAG-tag. PP2Ac associated with FLAG-Cyk4 and from cell lysate input were determined by western blot using customer-made antibody against PP2Ac.

Row | Compound | interaction with B′γ1 by ITC (in words) (B′γ1) | Kd (B′γ1) [µM] | other results
1 | LEPVRpSEE | no binding; also recorded: no interaction could be detected |  | 
2 | NRKLESVAEEHE [CIP2A peptide] |  | 7.2 | 
3 | NKRLSTIDEEGS [Cyk4 peptide S149E] |  | 1.59 | 
4 | LEPIRpSEE | no binding; also recorded: no interaction could be detected |  | 
5 | CC[C@@H]1C(=O)N(C)c2cnc(Nc3ccc(C(=O)NC4CCN(C)CC4)cc3OC)nc2N1C1CCCC1 [BI-2536] |  |  | effect on interaction between PP2Ac and Cyk4 (co-IP) [1]: blocked and delayed the interaction between PP2Ac and Cyk4
6 | LEPIRpTEE | no binding; also recorded: no interaction could be detected |  | 
